US20260137819A1 (Radionetics Oncology, Inc., priority 2022, published 2026)
Starred links: 1 amine or outer side, 2 acyl side, 3 side chain; linkers in the order of their positions; H or OH if unused. Non-standard residues stand in square brackets, D forms with d. Residues, ends and D or L forms follow the SMILES beside them. Groups on a side chain read outwards from the residue. *: point of attachment. X1 = COc1cc2c(cc1-c1cccc(N*)c1)-c1c(c(C(=O)N3CCOCC3(C)C)nn1-c1cc(Cl)cc(Cl)c1)CO2; DOTA = O=C(O)CN1CCN(CC(=O)O)CCN(CC(=O)*)CCN(CC(=O)O)CC1; Suc = O=C(CCC(=O)[*:2])[*:1]

Each molecule was assayed against T1, human follicle-stimulating hormone receptor (FSHR) (Homo sapiens, UniProt P23945) (assay: Measurement of agonist cAMP production by activation of human FSHR). Conditions: CHO-K1 human FSHR cells, 30 minutes at 37° C., HTRF cAMP kit; read-out: hFSHR Agonist cAMP EC50.
T1 construct: host or cells: CHO-K1
T1 sequence (P23945 18-695): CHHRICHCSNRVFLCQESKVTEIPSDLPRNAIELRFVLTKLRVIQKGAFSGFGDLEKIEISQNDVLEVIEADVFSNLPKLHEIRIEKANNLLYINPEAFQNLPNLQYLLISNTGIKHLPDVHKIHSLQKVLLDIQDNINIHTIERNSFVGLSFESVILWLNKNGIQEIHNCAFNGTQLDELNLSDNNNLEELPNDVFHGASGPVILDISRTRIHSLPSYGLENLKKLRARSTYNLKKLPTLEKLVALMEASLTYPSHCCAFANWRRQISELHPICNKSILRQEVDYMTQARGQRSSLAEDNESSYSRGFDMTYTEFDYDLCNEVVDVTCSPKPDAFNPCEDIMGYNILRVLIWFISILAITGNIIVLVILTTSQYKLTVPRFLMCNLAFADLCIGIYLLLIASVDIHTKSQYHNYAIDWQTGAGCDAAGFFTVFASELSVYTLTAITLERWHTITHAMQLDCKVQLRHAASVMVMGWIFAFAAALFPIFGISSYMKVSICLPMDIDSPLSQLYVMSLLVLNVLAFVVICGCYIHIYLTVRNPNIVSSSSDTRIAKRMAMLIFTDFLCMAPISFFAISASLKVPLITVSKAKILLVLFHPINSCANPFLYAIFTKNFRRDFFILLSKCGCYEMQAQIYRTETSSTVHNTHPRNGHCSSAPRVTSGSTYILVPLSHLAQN
Assay type: cell-based
In short: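 cAMP output was measured by HTRF after 30 min at 37 °C agonist exposure (0–10,000 nM final) in stably FSHR-transfected CHO-K1 cells. Lysate cAMP was read off a standard curve and fitted to obtain half-maximal EC50.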

Structure (SMILES)	EC50 [nM]
COc1cc2c(cc1-c1cncc(NCCOCCOCCOCCOCCNC(=O)[C@H](CS(=O)(=O)O)NC(=O)CN3CCN(CC(=O)O)CCN(CC(=O)O)CCN(CC(=O)O)CC3)c1)-c1c(c(C(=O)N3CCOCC3(C)C)nn1-c1cc(Cl)cc(Cl)c1)CO2 [Compound 67, (R)-2,2′,2″-(10-(20-((5-(1-(3,5-dichlorophenyl)-3-(3,3-dimethylmorpholine-4carbonyl)-7-methoxy-1,4-dihydrochromeno|4,3-c|pyrazol-8-yl)pyridin-3-yl)amino)-2,5-dioxo-4-(sulfomethyl)-9,12,15,18-tetraoxa-3,6-diazaicosyl)-1,4,7,10-tetraazacyclododecane-1,4,7-triyl)triacetic acid--2,2,2-trifluoroacetic acid (1/1)]	< 10
COc1cc2c(cc1-c1cncc(OCCOCCOCCOCCOCCNC(=O)[C@H](CS(=O)(=O)O)NC(=O)CN3CCN(CC(=O)O)CCN(CC(=O)O)CCN(CC(=O)O)CC3)c1)-c1c(c(C(=O)N3CCOCC3(C)C)nn1-c1cc(Cl)cc(Cl)c1)CO2 [Compound 68, (R)-2,2′,2″-(10-(20-((5-(1-(3,5-dichlorophenyl)-3-(3,3-dimethylmorpholine-4carbonyl)-7-methoxy-1,4-dihydrochromeno|4,3-c|pyrazol-8-yl)pyridin-3-yl)oxy)-2,5-dioxo-4-(sulfomethyl)-9,12,15,18-tetraoxa-3,6-diazaicosyl)-1,4,7,10-tetraazacyclododecane-1,4,7-triyl)triacetic acid]	< 10
COc1cc2c(cc1-c1cccc(NC(=O)CCOCCOCCNC(=O)[C@H](CS(=O)(=O)O)NC(=O)CN3CCN(CC(=O)O)CCN(CC(=O)O)CCN(CC(=O)O)CC3)c1)-c1c(c(C(=O)N3CCOCC3(C)C)nn1-c1cc(Cl)cc(Cl)c1)CO2 [Compound 69]	< 10
COc1cc2c(cc1-c1cccc(NCCOCCOCCOCCOCCNC(=O)[C@H](CS(=O)(=O)O)NC(=O)CN3CCN(CC(=O)O)CCN(CC(=O)O)CCN(CC(=O)O)CC3)c1)-c1c(c(C(=O)N3CCOCC3(C)C)nn1-c1cc(Cl)cc(Cl)c1)CO2 [Compound 71]	< 10
COc1cc2c(cc1-c1cncc(COCCOCCOCCOCCNC(=O)[C@H](CS(=O)(=O)O)NC(=O)CN3CCN(CC(=O)O)CCN(CC(=O)O)CCN(CC(=O)O)CC3)c1)-c1c(c(C(=O)N3CCOCC3(C)C)nn1-c1cc(Cl)cc(Cl)c1)CO2 [Compound 72, (R)-2,2′,2″-(10-(1-(5-(1-(3,5-dichlorophenyl)-3-(3,3-dimethylmorpholine-4carbonyl)-7-methoxy-1,4-dihydrochromeno|4,3-c|pyrazol-8-yl)pyridin-3-yl)-15,18-dioxo-16-(sulfomethyl)-2,5,8,11-tetraoxa-14,17-diazanonadecan-19-yl)-1,4,7,10-tetraazacyclododecane-1,4,7-triyl)triacetic acid]	10 to 100
COc1cc2c(cc1-c1cccc(OCCCNC(=O)[C@@H](CCCNC(=N)N)NC(=O)CCNC(=O)CN3CCN(CC(=O)O)CCN(CC(=O)O)CCN(CC(=O)O)CC3)c1)-c1c(c(C(=O)N3CCOCC3(C)C)nn1-c1cc(Cl)cc(Cl)c1)CO2 [Compound 73]	< 10
COc1cc2c(cc1-c1cccc(OCCCNC(=O)[C@@H](CCC(=O)O)NCCOCCNC(=O)[C@H](CS(=O)(=O)O)NC(=O)CN3CCN(CC(=O)O)CCN(CC(=O)O)CCN(CC(=O)O)CC3)c1)-c1c(c(C(=O)N3CCOCC3(C)C)nn1-c1cc(Cl)cc(Cl)c1)CO2 [Compound 74, 2,2′,2″-(10-((4R,13R)-13-(2-carboxyethyl)-18-(3-(1-(3,5-dichlorophenyl)-3(3,3-dimethylmorpholine-4-carbonyl)-7-methoxy-1,4-dihydrochromeno[4,3-c]pyrazol-8-yl)phenoxy)-2,5,14-trioxo-4-(sulfomethyl)-9-oxa-3,6,12,15-tetraazaoctadecyl)-1,4,7,10-tetraazacyclododecane-1,4,7-triyl)triacetic acid--2,2,2-trifluoroacetic acid (1/1)]	10 to 100
COc1cc2c(cc1-c1cccc(OCCOCCOCCOCCOCCNC(=O)[C@H](CS(=O)(=O)O)NC(=O)CN3CCN(CC(=O)O)CCN(CC(=O)O)CCN(CC(=O)O)CC3)c1)-c1c(c(C(=O)N3CC(=O)NCC3(C)C)nn1-c1cc(Cl)cc(Cl)c1)CO2 [Compound 75]	10 to 100
COc1cc2c(cc1-c1cncc(OCCOCCOCCOCCOCCNC(=O)[C@H](CS(=O)(=O)O)NC(=O)CN3CCN(CC(=O)O)CCN(CC(=O)O)CCN(CC(=O)O)CC3)c1)-c1c(c(C(=O)N3CCCN(C(=O)C4CCC4)CC3)nn1-c1cccs1)CO2 [Compound 76, (R)-2,2′,2″-(10-(20-((5-(3-(4-(cyclobutanecarbonyl)-1,4-diazepane-1carbonyl)-7-methoxy-1-(thiophen-2-yl)-1,4-dihydrochromeno[4,3-c]pyrazol-8-yl)pyridin-3-yl)oxy)-2,5-dioxo-4-(sulfomethyl)-9,12,15,18-tetraoxa-3,6-diazaicosyl)-1,4,7,10-tetraazacyclododecane-1,4,7-triyl)triacetic acid]	10 to 100
COc1cc2c(cc1-c1cncc(OCCCNC(=O)[C@@H](CCC(=O)O)NC(=O)CCNC(=O)CN3CCN(CC(=O)O)CCN(CC(=O)O)CCN(CC(=O)O)CC3)c1)-c1c(c(C(=O)N3CCCN(C(=O)C4CCC4)CC3)nn1-c1cccs1)CO2 [Compound 77]	10 to 100
COc1cc2c(cc1-c1cncc(OCCCNC(=O)[C@@H](CCCNC(=N)N)NC(=O)CCNC(=O)CN3CCN(CC(=O)O)CCN(CC(=O)O)CCN(CC(=O)O)CC3)c1)-c1c(c(C(=O)N3CCCN(C(=O)C4CCC4)CC3)nn1-c1cccs1)CO2 [Compound 78, (R)-2,2′,2″-(10-(2-((3-((1-((3-((5-(3-(4-(cyclobutanecarbonyl)-1,4-diazepane-1carbonyl)-7-methoxy-1-(thiophen-2-yl)-1,4-dihydrochromeno|4,3-c|pyrazol-8-yl)pyridin-3-yl)oxy)propyl)amino)-5-guanidino-1-oxopentan-2-yl)amino)-3-oxopropyl)amino)-2-oxoethyl)-1,4,7,10-tetraazacyclododecane-1,4,7-triyl)triacetic acid--2,2,2-trifluoroacetic acid (1/1)]	< 10
COc1cc2c(cc1-c1cncc(NC(=O)CCOCCOCCOCCOCCNC(=O)[C@H](CS(=O)(=O)O)NC(=O)CN3CCN(CC(=O)O)CCN(CC(=O)O)CCN(CC(=O)O)CC3)c1)-c1c(c(C(=O)N3CCOCC3(C)C)nn1-c1cc(Cl)cc(Cl)c1)CO2 [Compound 80]	10 to 100
COc1cc2c(cc1-c1cncc(NC(=O)CCCNC(=O)[C@@H](CCCNC(=N)N)NC(=O)CCNC(=O)CN3CCN(CC(=O)O)CCN(CC(=O)O)CCN(CC(=O)O)CC3)c1)-c1c(c(C(=O)N3CCOCC3(C)C)nn1-c1cc(Cl)cc(Cl)c1)CO2 [Compound 81, (R)-2,2′,2″-(10-(2-((3-((1-((4-((5-(1-(3,5-dichlorophenyl)-3-(3,3dimethylmorpholine-4-carbonyl)-7-methoxy-1,4-dihydrochromeno|4,3-clpyrazol-8-yl)pyridin-3-yl)amino)-4-oxobutyl)amino)-5-guanidino-1-oxopentan-2-yl)amino)-3-oxopropyl)amino)-2-oxoethyl)-1,4,7,10-tetraazacyclododecane-1,4,7-triyl)triacetic acid--2,2,2-trifluoroacetic acid (1/1)]	< 10
COc1cc2c(cc1-c1cccc(NC(=O)CCC(=O)NCCCC[C@@H](NC(=O)[C@@H](CCC(=O)O)NC(=O)[C@@H](CCCNC(=N)N)NC(=O)[C@@H](C)NC(=O)CN3CCN(CC(=O)O)CCN(CC(=O)O)CCN(CC(=O)O)CC3)C(=O)N[C@H](CCCNC(=N)N)C(=O)N[C@H](CCC(=O)O)C(=O)N[C@H](C)C(N)=O)c1)-c1c(c(C(=O)N3CCOCC3(C)C)nn1-c1cc(Cl)cc(Cl)c1)CO2 [Compound 83, 2,2′,2″-(10-((4R,7R,10R,13R,16R,19R,22R)-23-amino-10,19-bis(2carboxyethyl)-13-(4-(4-((3-(1-(3,5-dichlorophenyl)-3-(3,3-dimethylmorpholine-4-carbonyl)-7-methoxy-1,4-dihydrochromeno|4,3-c|pyrazol-8-yl)phenyl)amino)-4-oxobutanamido)butyl)-7,16-bis(3-guanidinopropyl)-4,22-dimethyl-2,5,8,11,14,17,20,23-octaoxo-3,6,9,12,15,18,21-heptaazatricosyl)-1,4,7,10-tetraazacyclododecane-1,4,7-triyl)triacetic acid] ({DOTA}-[dA][dR][dE][dK]([Suc-X1])[dR][dE][dA]-NH2)	10 to 100
